Drawing on patent publication US20240116947A1, “PYRIDO OXAZINE DERIVATIVES AS ALK5 INHIBITORS” (CHIESI FARMACEUTICI S.P.A., priority 2020, published 2024), this text covers IC50 for 22 molecules.

The target in the assay is human ALK5 (Homo sapiens (Human), UniProt P36897). As to the kind of experiment: ADP-GLO Kinases assay, inhibition of ALK5 enzymatic activity. The assay is classed as biochemical. The settings on record: Table 4; potency bins; purified recombinant human ALK5, ADP-Glo, 25° C.; read-out: ALK5 IC50. The method, then: The enzymatic activity of compounds of the present invention was monitored measuring the formation of ADP using the ADP-GLO Kinases assay. Following the incubation of the purified enzyme, a substrate and ATP, the produced ADP was converted into ATP, which in turn was converted into light by Ultra-Glo Luciferase. The luminescent signal positively correlated with ADP amount and kinase activity. Briefly, the kinase reaction was performed by incubating 2.6 nM of the purified, commercially available human ALK5 (recombinant TGF β1 N-term GST-tagged, 80-end), a final concentration of TGFβ1 peptide 94.5 μM (Promega, T36-58) and ultra-pure ATP (Promega V915B). […] All reactions/incubations were performed at 25° C. Compound and ALK5 kinase were mixed and incubated for 15 mins. Reactions were initiated by addition of ATP at a final concentration in the assay of 0.83 μM. After an incubation of 150 min, the reaction was stopped, and ADP production detected with ADP-Glo kit according to manufacturer's indications. The assay was performed in 384-well format and was validated using a selection of reference compounds that was tested in 11 point concentration-response curve.
Sequence of human ALK5 (P36897 80-503 limits assumed): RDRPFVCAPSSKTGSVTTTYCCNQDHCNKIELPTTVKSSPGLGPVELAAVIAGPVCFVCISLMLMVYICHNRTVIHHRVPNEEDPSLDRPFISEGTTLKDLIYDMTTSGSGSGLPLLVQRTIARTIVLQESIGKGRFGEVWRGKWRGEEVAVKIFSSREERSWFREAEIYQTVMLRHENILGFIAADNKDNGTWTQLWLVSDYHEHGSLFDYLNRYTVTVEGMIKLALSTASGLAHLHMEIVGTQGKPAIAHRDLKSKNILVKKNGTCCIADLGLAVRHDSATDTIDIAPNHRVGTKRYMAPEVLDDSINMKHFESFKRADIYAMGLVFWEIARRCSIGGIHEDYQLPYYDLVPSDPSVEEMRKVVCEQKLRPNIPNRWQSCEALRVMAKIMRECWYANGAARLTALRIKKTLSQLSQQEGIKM

Regarding `CN1CCC(CCC(=O)Nc2cc(N3CCOc4cnc(-c5cc(Cl)ncc5F)cc43)ccn2)CC1` [Example 41, N-{4-[7-(2-chloro-5-fluoropyridin-4-yl)-1H,2H,3H-pyrido[3,4-b][1,4]oxazin-1-yl]pyridin-2-yl}-3-(1-methylpiperidin-4-yl)propanamide], the concentration for half-maximal inhibition (IC50) was less than 1 nM.

For the molecule `COC(=O)C1CN(CCC(=O)Nc2cc(N3CCOc4cnc(-c5cc(Cl)ccc5F)cc43)ccn2)CCN1C` (stereo not shown) [Example 45, Methyl 4-[2-({4-[7-(5-chloro-2-fluorophenyl)-1H,2H,3H-pyrido[3,4-b][1,4]oxazin-1-yl]pyridin-2-yl}carbamoyl)ethyl]-1-methylpiperazine-2-carboxylate], the IC50 was less than 1 nM.

For the molecule `CN1CCN(CCC(=O)Nc2cc(N3CCOc4c3cc(-c3cc(Cl)ccc3F)nc4C(=O)O)ccn2)CC1` [Example 44, 7-(5-chloro-2-fluorophenyl)-1-{2-[3-(4-methylpiperazin-1-yl)propanamido]pyridin-4-yl}-1H,2H,3H-pyrido[3,4-b][1,4]oxazine-5-carboxylic acid], the IC50 was in the range of 1 to 5 nM.

Regarding `Fc1ccc(Cl)cc1-c1cc2c(cn1)OCCN2c1ccncc1` [Example 1, 4-[7-(5-chloro-2-fluorophenyl)-1H,2H,3H-pyrido[3,4-b][1,4]oxazin-1-yl]pyridine], the IC50 fell in the range of 5 to 10 nM.

Consider `CN1CCC(CCC(=O)Nc2cc(N3CCOc4cnc(-c5cc(Cl)ccc5F)cc43)ccn2)CC1` [Example 32, N-{4-[7-(5-chloro-2-fluorophenyl)-1H,2H,3H-pyrido[3,4-b][1,4]oxazin-1-yl]pyridin-2-yl}-3-(1-methylpiperidin-4-yl)propanamide], for which the half-maximal inhibitory concentration (IC50) is less than 1 nM.

Take `CN(CCNS(C)(=O)=O)CCC(=O)Nc1cc(N2CCOc3cnc(-c4cc(Cl)ccc4F)cc32)ccn1` [Example 29, N-{4-[7-(5-chloro-2-fluorophenyl)-1H,2H,3H-pyrido[3,4-b][1,4]oxazin-1-yl]pyridin-2-yl}-3-[(2-methanesulfonamidoethyl)(methyl)amino]propanamide]: the IC50 is less than 1 nM.

In the case of `CC(C)c1ccc(F)c(-c2cc3c(cn2)OCCN3c2ccnc(N)c2)c1` [Example 13, 4-{7-[2-fluoro-5-(propan-2-yl)phenyl]-1H,2H,3H-pyrido[3,4-b][1,4]oxazin-1-yl}pyridin-2-amine], the IC50 was 1 to 5 nM.

Regarding `Nc1nc(-c2cc(Cl)ccc2F)cc2c1OCCN2c1ccncc1` [Example 2, 7-(5-chloro-2-fluorophenyl)-1-(pyridin-4-yl)-1H,2H,3H-pyrido[3,4-b][1,4]oxazin-5-amine], the IC50 was 5 to 10 nM.

With `COC(=O)CC1CN(CCC(=O)Nc2cc(N3CCOc4cnc(-c5cc(Cl)ccc5F)cc43)ccn2)CCN1` (stereo not shown) [Example 48, Methyl 2-{4-[2-({4-[7-(5-chloro-2-fluorophenyl)-1H,2H,3H-pyrido[3,4-b][1,4]oxazin-1-yl]pyridin-2-yl}carbamoyl)ethyl]piperazin-2-yl}acetate], the IC50 was less than 1 nM.

For the molecule `O=C(CCN1CCOCC1)Nc1cc(N2CCOc3cnc(-c4cc(Cl)ccc4F)cc32)ccn1` [Example 8, N-{4-[7-(5-chloro-2-fluorophenyl)-1H,2H,3H-pyrido[3,4-b][1,4]oxazin-1-yl]pyridin-2-yl}-3-(morpholin-4-yl)propanamide], the IC50 was less than 1 nM.

With `CN(CCO)CCC(=O)Nc1cc(N2CCOc3cnc(-c4cc(Cl)ccc4F)cc32)ccn1` [Example 20, N-{4-[7-(5-chloro-2-fluorophenyl)-1H,2H,3H-pyrido[3,4-b][1,4]oxazin-1-yl]pyridin-2-yl}-3-[(2-hydroxyethyl)(methyl)amino] propanamide], the IC50 was less than 1 nM.

Take `CN(CCC(=O)Nc1cc(N2CCOc3cnc(-c4cc(Cl)ccc4F)cc32)ccn1)C1COC1` [Example 19, N-{4-[7-(5-chloro-2-fluorophenyl)-1H,2H,3H-pyrido[3,4-b][1,4]oxazin-1-yl]pyridin-2-yl}-3-[methyl(oxetan-3-yl)amino]propanamide]: the half-maximal inhibitory concentration (IC50) was less than 1 nM.

Turning to `CN1CC2CC1CN2CC(=O)Nc1cc(N2CCOc3cnc(-c4cc(Cl)ccc4F)cc32)ccn1` (stereo not shown) [Example 52, N-{4-[7-(5-chloro-2-fluorophenyl)-1H,2H,3H-pyrido[3,4-b][1,4]oxazin-1-yl]pyridin-2-yl}-2-{5-methyl-2,5-diazabicyclo[2.2.1]heptan-2-yl}acetamide], the 50% inhibitory concentration (IC50) was less than 1 nM.

Consider `CN1CCN(CCC(=O)Nc2cc(N3CCOc4cnc(-c5cc(Cl)ccc5F)cc43)ccn2)C(=O)C1` [Example 25, N-{4-[7-(5-chloro-2-fluorophenyl)-1H,2H,3H-pyrido[3,4-b][1,4]oxazin-1-yl]pyridin-2-yl}-3-(4-methyl-2-oxopiperazin-1-yl)propanamide], for which the IC50 was less than 1 nM.

Take `CN1CC2(C1)CN(CC(=O)Nc1cc(N3CCOc4cnc(-c5cc(Cl)ccc5F)cc43)ccn1)C2` [Example 53, N-{4-[7-(5-chloro-2-fluorophenyl)-1H,2H,3H-pyrido[3,4-b][1,4]oxazin-1-yl]pyridin-2-yl}-2-{6-methyl-2,6-diazaspiro[3.3]heptan-2-yl}acetamide]: the IC50 was less than 1 nM.

On to `O=C(CCN1CCN(CCO)CC1)Nc1cc(N2CCOc3cnc(-c4cc(Cl)ccc4F)cc32)ccn1` [Example 28, N-{4-[7-(5-chloro-2-fluorophenyl)-1H,2H,3H-pyrido[3,4-b][1,4]oxazin-1-yl]pyridin-2-yl}-3-[4-(2-hydroxyethyl)piperazin-1-yl]propanamide], for which the IC50 was less than 1 nM.

In the case of `CN1CCN(CCC(=O)Nc2cc(N3CCOc4cnc(-c5nc(Cl)ccc5F)cc43)ccn2)CC1` [Example 38, N-{4-[7-(6-chloro-3-fluoropyridin-2-yl)-1H,2H,3H-pyrido[3,4-b][1,4]oxazin-1-yl]pyridin-2-yl}-3-(4-methylpiperazin-1-yl)propanamide], the IC50 was less than 1 nM.

As for `CN1CCC(CCC(=O)Nc2cc(N3CCOc4cnc(-c5nc(Cl)ccc5F)cc43)ccn2)CC1` [Example 39, N-{4-[7-(6-chloro-3-fluoropyridin-2-yl)-1H,2H,3H-pyrido[3,4-b][1,4]oxazin-1-yl]pyridin-2-yl}-3-(1-methylpiperidin-4-yl)propanamide], the IC50 was less than 1 nM.

On to `COC(=O)CN(C)CCC(=O)Nc1cc(N2CCOc3cnc(-c4cc(Cl)ccc4F)cc32)ccn1` [Example 23, methyl 2-{[2-({4-[7-(5-chloro-2-fluorophenyl)-1H,2H,3H-pyrido[3,4-b][1,4]oxazin-1-yl]pyridin-2-yl}carbamoyl)ethyl](methyl)amino} acetate], for which the IC50 is less than 1 nM.

With `Fc1ccc(Cl)cc1-c1cc2c(cn1)OCCN2c1ccnc2[nH]cnc12` [Example 17, 7-(5-chloro-2-fluorophenyl)-1-{3H-imidazo[4,5-b]pyridin-7-yl}-1H,2H,3H-pyrido[3,4-b][1,4]oxazine], the IC50 lay in the range of 5 to 10 nM.

As to `COCCC(=O)Nc1cc(N2CCOc3cnc(-c4cc(Cl)ccc4F)cc32)ccn1` [Example 40, N-{4-[7-(5-chloro-2-fluorophenyl)-1H,2H,3H-pyrido[3,4-b][1,4]oxazin-1-yl]pyridin-2-yl}-3-methoxypropanamide], the IC50 was in the range of 5 to 10 nM.

For `NC(=O)CCN1CCN(CCC(=O)Nc2cc(N3CCOc4cnc(-c5cc(Cl)ccc5F)cc43)ccn2)CC1` [Example 37, 3-[4-(2-carbamoylethyl)piperazin-1-yl]-N-{4-[7-(5-chloro-2-fluorophenyl)-1H,2H,3H-pyrido[3,4-b][1,4]oxazin-1-yl]pyridin-2-yl}propanamide], the half-maximal inhibitory concentration (IC50) is less than 1 nM.

What is called IC50 is the point on the concentration scale where inhibition reaches its midpoint.
